How the values were obtained:
[1] = target: Calcium/calmodulin-dependent protein kinase type II subunit delta (Homo sapiens) (UniProt Q13557)
[2] = target: Calcium/calmodulin-dependent protein kinase kinase 2 (Homo sapiens, UniProt Q96RR4)
[3] = target: Dual specificity protein kinase CLK2 (Homo sapiens) (UniProt P49760)
[4] = target: Casein kinase I isoform gamma-3 (Homo sapiens) (UniProt Q9Y6M4)
[5] = target: T1, Myotonin-protein kinase (Homo sapiens) (UniProt Q09013)
T1 sequence (whole entry): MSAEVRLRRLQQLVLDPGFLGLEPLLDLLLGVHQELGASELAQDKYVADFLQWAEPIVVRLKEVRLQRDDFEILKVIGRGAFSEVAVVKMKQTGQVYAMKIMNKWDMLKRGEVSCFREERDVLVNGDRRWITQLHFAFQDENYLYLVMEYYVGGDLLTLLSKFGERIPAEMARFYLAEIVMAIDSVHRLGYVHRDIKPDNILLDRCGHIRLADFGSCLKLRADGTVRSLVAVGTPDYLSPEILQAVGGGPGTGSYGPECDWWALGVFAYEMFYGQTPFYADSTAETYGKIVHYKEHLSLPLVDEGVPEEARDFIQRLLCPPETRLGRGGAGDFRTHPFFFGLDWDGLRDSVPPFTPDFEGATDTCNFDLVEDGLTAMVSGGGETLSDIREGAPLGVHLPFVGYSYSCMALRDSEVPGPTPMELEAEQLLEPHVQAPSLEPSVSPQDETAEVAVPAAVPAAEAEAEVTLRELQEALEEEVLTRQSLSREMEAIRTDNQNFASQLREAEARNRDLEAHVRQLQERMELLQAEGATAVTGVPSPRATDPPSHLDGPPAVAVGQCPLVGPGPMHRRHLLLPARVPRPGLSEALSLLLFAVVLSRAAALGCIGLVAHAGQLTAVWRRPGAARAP

[6] = target: Glycogen synthase kinase-3 beta (Homo sapiens, UniProt P49841)
[7] = target: Mitogen-activated protein kinase 11 (Homo sapiens, UniProt Q15759)
[8] = target: Serine/threonine-protein kinase PAK 4 (Homo sapiens) (UniProt O96013)
[9] = target: Serine/threonine-protein kinase PAK 5 (Homo sapiens) (UniProt Q9P286)
[10] = target: Cyclin-dependent kinase 16 (Homo sapiens) (UniProt Q00536)
[11] = target: Serine/threonine-protein kinase pim-2 (Homo sapiens, UniProt Q9P1W9)
[12] = target: Serine/threonine-protein kinase PLK1 (Homo sapiens) (UniProt P53350)
[13] = target: cAMP-dependent protein kinase catalytic subunit alpha (Homo sapiens) (UniProt P17612)
[14] = target: T2, Serine/threonine-protein kinase 4 (Homo sapiens) (UniProt Q13043)
T2 sequence (whole entry): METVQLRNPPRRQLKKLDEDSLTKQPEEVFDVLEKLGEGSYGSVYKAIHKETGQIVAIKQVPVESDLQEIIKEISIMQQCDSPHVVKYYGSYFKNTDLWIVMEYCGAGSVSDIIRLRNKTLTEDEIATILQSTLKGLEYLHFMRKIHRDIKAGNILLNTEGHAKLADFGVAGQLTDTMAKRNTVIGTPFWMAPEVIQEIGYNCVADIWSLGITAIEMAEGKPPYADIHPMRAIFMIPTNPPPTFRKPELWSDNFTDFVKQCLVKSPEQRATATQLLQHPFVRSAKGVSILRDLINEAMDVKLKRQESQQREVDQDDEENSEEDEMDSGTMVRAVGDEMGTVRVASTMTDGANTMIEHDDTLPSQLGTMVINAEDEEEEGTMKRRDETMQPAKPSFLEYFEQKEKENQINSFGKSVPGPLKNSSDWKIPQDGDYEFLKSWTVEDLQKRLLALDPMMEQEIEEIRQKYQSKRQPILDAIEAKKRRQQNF

[15] = target: TRAF2 and NCK-interacting protein kinase (Homo sapiens) (UniProt Q9UKE5)
[16] = target: T3, Serine/threonine-protein kinase VRK1 (Homo sapiens) (UniProt Q99986)
T3 sequence (whole entry): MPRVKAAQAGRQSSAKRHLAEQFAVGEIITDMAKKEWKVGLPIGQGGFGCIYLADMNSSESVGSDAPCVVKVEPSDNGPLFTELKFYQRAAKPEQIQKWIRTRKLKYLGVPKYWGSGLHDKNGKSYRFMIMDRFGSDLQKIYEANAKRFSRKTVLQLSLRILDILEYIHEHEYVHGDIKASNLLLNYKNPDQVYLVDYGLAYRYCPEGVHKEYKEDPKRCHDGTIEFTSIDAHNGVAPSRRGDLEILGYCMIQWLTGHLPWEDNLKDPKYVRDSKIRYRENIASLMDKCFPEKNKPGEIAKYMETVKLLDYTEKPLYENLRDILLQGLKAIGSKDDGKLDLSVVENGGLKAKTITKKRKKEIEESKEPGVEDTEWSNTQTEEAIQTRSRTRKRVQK

[17] = target: Serine/threonine-protein kinase VRK2 (Homo sapiens) (UniProt Q86Y07)
[18] = target: T4, Serine/threonine-protein kinase VRK3 (Homo sapiens) (UniProt Q8IV63)
T4 sequence (whole entry): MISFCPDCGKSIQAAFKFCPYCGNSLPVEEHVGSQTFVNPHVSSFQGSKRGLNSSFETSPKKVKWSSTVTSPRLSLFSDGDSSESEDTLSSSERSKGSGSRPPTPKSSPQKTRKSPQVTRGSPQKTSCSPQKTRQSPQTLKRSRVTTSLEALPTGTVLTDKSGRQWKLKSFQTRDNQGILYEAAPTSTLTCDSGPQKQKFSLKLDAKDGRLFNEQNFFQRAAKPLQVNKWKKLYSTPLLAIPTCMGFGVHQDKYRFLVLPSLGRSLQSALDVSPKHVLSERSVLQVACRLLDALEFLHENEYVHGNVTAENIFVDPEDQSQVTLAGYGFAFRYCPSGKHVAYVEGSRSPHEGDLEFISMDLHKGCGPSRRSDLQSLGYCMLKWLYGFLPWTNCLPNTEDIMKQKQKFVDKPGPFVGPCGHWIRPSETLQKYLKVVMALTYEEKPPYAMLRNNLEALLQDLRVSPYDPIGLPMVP

Dual specificity protein kinase CLK2 (Homo sapiens), sequence (P49760 whole entry, looked up, canonical isoform): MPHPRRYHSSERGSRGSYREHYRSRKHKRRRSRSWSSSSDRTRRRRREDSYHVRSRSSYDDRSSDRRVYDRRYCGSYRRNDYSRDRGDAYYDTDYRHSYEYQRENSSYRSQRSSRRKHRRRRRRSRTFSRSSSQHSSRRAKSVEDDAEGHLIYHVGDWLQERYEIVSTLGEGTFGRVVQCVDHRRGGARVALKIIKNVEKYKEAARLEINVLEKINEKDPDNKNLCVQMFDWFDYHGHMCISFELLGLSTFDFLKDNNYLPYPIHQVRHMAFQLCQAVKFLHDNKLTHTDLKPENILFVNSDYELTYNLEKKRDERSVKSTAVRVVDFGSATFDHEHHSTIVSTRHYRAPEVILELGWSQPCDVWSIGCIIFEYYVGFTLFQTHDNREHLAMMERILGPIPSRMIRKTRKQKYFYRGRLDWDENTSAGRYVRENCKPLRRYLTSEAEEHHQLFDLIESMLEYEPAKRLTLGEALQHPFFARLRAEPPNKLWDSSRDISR
Serine/threonine-protein kinase PAK 5 (Homo sapiens), sequence (Q9P286 whole entry, looked up): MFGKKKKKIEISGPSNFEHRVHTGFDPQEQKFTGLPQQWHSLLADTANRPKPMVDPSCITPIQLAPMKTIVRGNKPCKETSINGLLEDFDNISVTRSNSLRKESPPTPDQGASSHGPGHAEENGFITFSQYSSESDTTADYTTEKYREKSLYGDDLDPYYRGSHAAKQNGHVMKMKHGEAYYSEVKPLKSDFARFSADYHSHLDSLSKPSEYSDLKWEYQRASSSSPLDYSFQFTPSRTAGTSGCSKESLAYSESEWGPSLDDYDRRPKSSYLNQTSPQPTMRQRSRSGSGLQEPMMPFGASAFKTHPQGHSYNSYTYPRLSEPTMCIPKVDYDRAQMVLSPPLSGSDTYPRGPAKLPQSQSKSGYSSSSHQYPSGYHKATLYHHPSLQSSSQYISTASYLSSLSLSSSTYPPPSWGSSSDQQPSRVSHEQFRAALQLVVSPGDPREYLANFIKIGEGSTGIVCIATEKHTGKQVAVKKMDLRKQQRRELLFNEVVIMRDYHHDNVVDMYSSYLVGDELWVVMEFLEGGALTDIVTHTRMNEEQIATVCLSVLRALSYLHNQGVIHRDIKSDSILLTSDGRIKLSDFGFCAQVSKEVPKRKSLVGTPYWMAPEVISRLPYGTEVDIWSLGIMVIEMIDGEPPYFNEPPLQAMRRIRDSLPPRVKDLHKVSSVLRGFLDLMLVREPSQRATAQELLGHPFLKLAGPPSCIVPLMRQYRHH
Serine/threonine-protein kinase PAK 4 (Homo sapiens), sequence (O96013 whole entry, looked up): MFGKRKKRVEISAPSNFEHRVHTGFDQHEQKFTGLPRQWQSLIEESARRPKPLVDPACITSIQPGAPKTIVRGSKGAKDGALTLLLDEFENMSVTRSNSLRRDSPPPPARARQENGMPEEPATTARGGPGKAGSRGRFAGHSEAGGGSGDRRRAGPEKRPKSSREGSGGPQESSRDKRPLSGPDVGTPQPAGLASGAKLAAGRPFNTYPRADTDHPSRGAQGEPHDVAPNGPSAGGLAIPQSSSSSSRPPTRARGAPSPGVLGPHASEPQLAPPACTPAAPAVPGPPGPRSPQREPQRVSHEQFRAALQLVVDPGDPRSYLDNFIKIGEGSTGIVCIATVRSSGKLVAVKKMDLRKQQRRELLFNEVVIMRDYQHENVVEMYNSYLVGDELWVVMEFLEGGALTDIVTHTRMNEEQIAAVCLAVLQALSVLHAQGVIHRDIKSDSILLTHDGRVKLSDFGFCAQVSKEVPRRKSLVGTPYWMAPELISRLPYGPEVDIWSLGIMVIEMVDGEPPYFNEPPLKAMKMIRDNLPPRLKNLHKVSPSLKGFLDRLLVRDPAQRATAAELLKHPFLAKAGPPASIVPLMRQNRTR
Calcium/calmodulin-dependent protein kinase kinase 2, sequence (Q96RR4 2-588 limits assumed): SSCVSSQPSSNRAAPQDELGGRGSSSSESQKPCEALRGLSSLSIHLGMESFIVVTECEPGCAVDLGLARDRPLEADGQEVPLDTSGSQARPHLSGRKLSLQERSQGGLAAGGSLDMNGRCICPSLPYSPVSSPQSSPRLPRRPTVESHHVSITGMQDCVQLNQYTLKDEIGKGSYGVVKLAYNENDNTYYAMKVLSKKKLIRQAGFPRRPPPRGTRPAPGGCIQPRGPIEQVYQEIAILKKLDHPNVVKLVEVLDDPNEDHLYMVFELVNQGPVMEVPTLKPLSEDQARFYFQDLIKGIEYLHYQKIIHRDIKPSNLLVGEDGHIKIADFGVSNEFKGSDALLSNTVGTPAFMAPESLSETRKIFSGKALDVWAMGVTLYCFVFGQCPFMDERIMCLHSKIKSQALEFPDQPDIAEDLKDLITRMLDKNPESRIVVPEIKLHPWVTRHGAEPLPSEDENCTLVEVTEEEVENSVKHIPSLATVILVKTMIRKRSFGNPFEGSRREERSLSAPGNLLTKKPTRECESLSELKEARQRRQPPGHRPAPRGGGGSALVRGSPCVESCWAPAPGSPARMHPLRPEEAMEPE
Cyclin-dependent kinase 16 (Homo sapiens), sequence (Q00536 whole entry): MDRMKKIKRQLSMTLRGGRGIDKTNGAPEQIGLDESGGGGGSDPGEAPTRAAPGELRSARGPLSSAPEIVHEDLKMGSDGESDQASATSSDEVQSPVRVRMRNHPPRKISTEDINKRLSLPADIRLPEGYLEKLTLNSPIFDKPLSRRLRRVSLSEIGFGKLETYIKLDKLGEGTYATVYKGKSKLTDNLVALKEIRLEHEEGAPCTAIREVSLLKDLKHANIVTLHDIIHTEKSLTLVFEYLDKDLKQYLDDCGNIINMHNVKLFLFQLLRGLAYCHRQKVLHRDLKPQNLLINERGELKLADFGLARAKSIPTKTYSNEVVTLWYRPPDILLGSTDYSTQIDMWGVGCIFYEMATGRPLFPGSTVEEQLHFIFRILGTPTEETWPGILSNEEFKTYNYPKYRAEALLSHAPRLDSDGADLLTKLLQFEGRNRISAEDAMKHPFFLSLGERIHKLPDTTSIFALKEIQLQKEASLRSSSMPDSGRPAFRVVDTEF
Mitogen-activated protein kinase 11, sequence (Q15759 whole entry): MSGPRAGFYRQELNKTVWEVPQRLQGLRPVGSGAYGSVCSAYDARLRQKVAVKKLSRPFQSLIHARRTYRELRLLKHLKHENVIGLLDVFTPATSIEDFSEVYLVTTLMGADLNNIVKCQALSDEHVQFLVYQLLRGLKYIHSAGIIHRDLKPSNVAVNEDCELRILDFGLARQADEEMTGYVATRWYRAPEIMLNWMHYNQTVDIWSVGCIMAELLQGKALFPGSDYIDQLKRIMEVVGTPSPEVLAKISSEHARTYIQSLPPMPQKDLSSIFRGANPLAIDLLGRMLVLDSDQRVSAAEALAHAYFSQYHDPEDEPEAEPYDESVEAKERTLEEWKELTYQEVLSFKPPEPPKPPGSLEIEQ
Serine/threonine-protein kinase VRK2 (Homo sapiens), sequence (Q86Y07 whole entry): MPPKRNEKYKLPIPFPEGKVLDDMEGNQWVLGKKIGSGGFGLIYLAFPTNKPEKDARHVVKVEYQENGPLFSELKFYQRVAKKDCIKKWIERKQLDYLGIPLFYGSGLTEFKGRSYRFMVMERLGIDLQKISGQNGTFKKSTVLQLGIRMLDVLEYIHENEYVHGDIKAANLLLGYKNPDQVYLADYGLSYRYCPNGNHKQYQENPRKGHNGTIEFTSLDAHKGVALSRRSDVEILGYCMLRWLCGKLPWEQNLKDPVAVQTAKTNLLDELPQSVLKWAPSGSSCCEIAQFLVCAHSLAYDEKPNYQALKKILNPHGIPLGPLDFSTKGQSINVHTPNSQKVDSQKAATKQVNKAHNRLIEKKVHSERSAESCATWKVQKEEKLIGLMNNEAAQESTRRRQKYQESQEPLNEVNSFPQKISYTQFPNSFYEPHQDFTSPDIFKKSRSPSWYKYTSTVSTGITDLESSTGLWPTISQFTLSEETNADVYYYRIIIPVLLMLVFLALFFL
Serine/threonine-protein kinase pim-2, sequence (Q9P1W9 whole entry, looked up): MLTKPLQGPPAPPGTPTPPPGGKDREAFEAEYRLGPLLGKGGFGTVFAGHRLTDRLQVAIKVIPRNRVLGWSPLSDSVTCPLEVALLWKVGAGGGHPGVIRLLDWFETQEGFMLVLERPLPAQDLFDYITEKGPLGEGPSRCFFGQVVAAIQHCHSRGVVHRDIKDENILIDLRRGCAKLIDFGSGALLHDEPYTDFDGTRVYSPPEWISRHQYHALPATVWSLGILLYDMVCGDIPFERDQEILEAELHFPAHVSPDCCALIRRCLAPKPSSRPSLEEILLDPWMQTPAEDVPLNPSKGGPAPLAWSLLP
Serine/threonine-protein kinase PLK1 (Homo sapiens), sequence (P53350 whole entry): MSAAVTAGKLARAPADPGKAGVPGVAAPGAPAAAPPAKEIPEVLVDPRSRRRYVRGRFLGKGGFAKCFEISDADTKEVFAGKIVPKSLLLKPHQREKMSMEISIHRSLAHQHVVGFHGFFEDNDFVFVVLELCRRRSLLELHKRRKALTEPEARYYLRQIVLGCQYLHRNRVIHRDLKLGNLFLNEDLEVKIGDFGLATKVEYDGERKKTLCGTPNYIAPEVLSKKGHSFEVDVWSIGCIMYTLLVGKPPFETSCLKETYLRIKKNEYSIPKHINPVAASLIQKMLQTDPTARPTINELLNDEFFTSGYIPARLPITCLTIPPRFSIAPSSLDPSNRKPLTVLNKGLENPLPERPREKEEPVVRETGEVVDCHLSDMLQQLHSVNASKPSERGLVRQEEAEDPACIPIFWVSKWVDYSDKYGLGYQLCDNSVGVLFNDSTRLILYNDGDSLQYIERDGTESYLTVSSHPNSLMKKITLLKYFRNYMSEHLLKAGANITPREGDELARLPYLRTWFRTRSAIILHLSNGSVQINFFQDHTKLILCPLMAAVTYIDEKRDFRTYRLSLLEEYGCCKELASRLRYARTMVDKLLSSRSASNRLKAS

SMILES | ΔTm [1] | ΔTm [2] | ΔTm [3] | ΔTm [4] | ΔTm [5] | ΔTm [6] | ΔTm [7] | ΔTm [8] | ΔTm [9] | ΔTm [10] | ΔTm [11] | ΔTm [12] | ΔTm [13] | ΔTm [14] | ΔTm [15] | ΔTm [16] | ΔTm [17] | ΔTm [18]
Cc1c2ccncc2c(C)c2c1[nH]c1ccccc12 [ELLIPTECINE] | -0.3 °C | 1.3 °C | 3.3 °C | 0.7 °C | 3.5 °C | 5.6 °C | 0.6 °C | 0.7 °C | 0.9 °C | -0.4 °C | 7.1 °C | 3.9 °C | 5.9 °C | 4 °C | -0.2 °C | 0.4 °C | -0.7 °C | 1.3 °C
Cl.Cn1cc(C2=C(c3ccc4cc5n(c4c3)CCC(CN)C5)C(=O)NC2=O)c2ccccc21 (stereo not drawn) | -0.5 °C | -1.3 °C | 1 °C | 0.6 °C | 6 °C | 6.7 °C | -0.1 °C | 1.6 °C | 0.1 °C | 2.9 °C | 3.1 °C | 0.1 °C | 1.5 °C | 7.1 °C | 0.3 °C | 0.8 °C | 0.4 °C | 0.6 °C
NCCNS(=O)(=O)c1cccc2c(Cl)cccc12 | -0.1 °C | 0.3 °C | 0.3 °C | 0.4 °C | -1.1 °C | 0.1 °C | -0.2 °C | 0.5 °C | 0.1 °C | -0.1 °C | 1.7 °C | 0.4 °C | 2.5 °C | 0.4 °C | 0 °C | 0 °C | 0.1 °C | 0.3 °C
Oc1cc(O)cc(/C=C/c2ccc(O)c(O)c2)c1 [PICEATANNOL] | 0.1 °C | 0.5 °C | 0.6 °C | 0.5 °C | -0.5 °C | 0.8 °C | 0.8 °C | 1.5 °C | -0.9 °C | 0 °C | 2 °C | 2.3 °C | 2.7 °C | 0.3 °C | 0.4 °C | 0.2 °C | -0.4 °C | -0.2 °C
CC(=O)O/N=C1/C(=C2/C(=O)Nc3cc(Br)ccc32)Nc2ccccc21 [6-BROMOINDIRUBIN-3'-ACETOXIME] | -0.3 °C | -1.7 °C | 2.3 °C | 0.5 °C | 0.7 °C | 9.4 °C | 1.1 °C | 2.2 °C | 0.9 °C | 2.1 °C | -1.4 °C | 0.4 °C | 3 °C | 3.5 °C | 0.4 °C | 0.3 °C | 0.6 °C | 0.7 °C
C[C@@H]1C[C@H]2O[C@@H]2/C=C\C=C\C(=O)Cc2c(Cl)c(O)cc(O)c2C(=O)O1 [RADICICOL] | -0.4 °C | -0.1 °C | 0.1 °C | 0.1 °C | -0.9 °C | -0.3 °C | 0.7 °C | 1.3 °C | 0.6 °C | 0.2 °C | 0.1 °C | 0.2 °C | 0.7 °C | 0.3 °C | -0.3 °C | -0.2 °C | 0.2 °C | -0.4 °C
N=C(N)NCCNS(=O)(=O)c1cccc2cnccc12 | 0.1 °C | -0.1 °C | 0.1 °C | 0.3 °C | 0.2 °C | 0.4 °C | -0.3 °C | -0.1 °C | 0.4 °C | -0.7 °C | 0.6 °C | 0.3 °C | 1.7 °C | 0.4 °C | 0.1 °C | 0.3 °C | 0.1 °C | 0.3 °C
C[S+]([O-])c1ccc(CSc2nc(-c3ccc(F)cc3)c(-c3ccncc3)[nH]2)cc1 (stereo not drawn) | 0 °C | 0.9 °C | 0.2 °C | -0.1 °C | 0.5 °C | 0 °C | 1.5 °C | 0.1 °C | 0.4 °C | -0.7 °C | 0.4 °C | -0.2 °C | -0.2 °C | 0.1 °C | 0.1 °C | -0.1 °C | 0.1 °C | -0.8 °C
NS(=O)(=O)c1ccc(Nc2nc(OCC3CCCCC3)c3nc[nH]c3n2)cc1 | 0.2 °C | 0.8 °C | 2.7 °C | 2.2 °C | 3.2 °C | 4.3 °C | 0.6 °C | 3.8 °C | 2.7 °C | 3.2 °C | 0.6 °C | 5.1 °C | -0.1 °C | 1.4 °C | -0.3 °C | 1.1 °C | 0.6 °C | 4.7 °C
CCOC(=O)c1cnc2oc3ccc(O)cc3c2c1-c1ccccc1 | -0.1 °C | 2.3 °C | 3.5 °C | 1.1 °C | -0.4 °C | 4.3 °C | -0.6 °C | 0.7 °C | 0.5 °C | -0.6 °C | 6.3 °C | 0.8 °C | 1.3 °C | 3.4 °C | 1.3 °C | 0.1 °C | 0.3 °C | -0.6 °C
COc1ccc(CNc2nc(N(CCO)CCO)nc3c2ncn3C(C)C)cc1 | -0.3 °C | 1.2 °C | 2.4 °C | 1.7 °C | -0.1 °C | 0.8 °C | 1.2 °C | 1.7 °C | 1.1 °C | -0.3 °C | 0.3 °C | 0.9 °C | 0.5 °C | 0.4 °C | 0.5 °C | 0.7 °C | 1.4 °C | 0.4 °C

— ChEMBL document CHEMBL1145498, “A systematic interaction map of validated kinase inhibitors with Ser/Thr kinases” (Proc Natl Acad Sci U S A, 2007)
